Publication PMC10223284, “Category-Based Toxicokinetic Evaluations of Data-Poor Per- and Polyfluoroalkyl Substances (PFAS) using Gas Chromatography Coupled with Mass Spectrometry” (Toxics, 2023)
Where “and” joins values, the source holds several entries; their conditions need not be identical. Identical values can stand only once. Like-named read-outs stand apart in the source and are kept apart here.

Experiments:
[1] = test system: human primary cells; conditions: cited from earlier work
[2] = test system: human plasma; assay: Ultracentrifugation (UC) plasma protein binding assay, fraction unbound in plasma (fup); conditions: for Fraction Unbound (fu), Run-specific Avg: average of one UC run (run date in line above); for Mean fu: fraction unbound in human plasma, some values based on eLOQ; for Mean fu / fup: ultracentrifugation; for fup: 10 μM, 37 °C; for Fraction Unbound (fu), replicates A, B, C: single replicate of one UC run (aqueous fraction / Time 5 hr)
[3] = In vitro-in vivo extrapolation (IVIVE) to Css and administered equivalent dose (AED); set-up: species or system human; conditions: for Clhep: IVIVE, hepatocyte Clint scaled to whole-liver clearance; for AED: administered equivalent dose from LOEC and Css; for Fub: fub=fup/(B:P), Fub set to 1 if needed; for CLint: scaled with HPGL 110 mill cells/g, Vl 1596 g
Procedure: Using the experimentally generated PPB (fraction unbound in plasma, fup) and hepatic Clint data, IVIVE was performed as previously described to calculate human steady-state plasma concentrations (Css). Briefly, experimental measures of fup are adjusted using blood:plasma partitioning information to estimate the fraction unbound in blood (fub). Experimental hepatocyte Clint data are scaled up to represent whole-liver clearance (L/h). […] Once estimated, these Css values are considered in conjunction with published in vitro bioactivity concentrations (i.e., lowest-observed effective concentrations, or LOECs) to calculate AEDs (Table 2). See Table S10 for all relevant IVIVE inputs, scalars, calculations, and outputs.

[4] = Abiotic loss in negative controls of the hepatocyte clearance assay (cell-free media, metabolically inactivated hepatocytes); format: in vitro ADME; conditions: for Hep_Stab_Fail: flag for stability failure in hepatocyte clearance assay controls (1 or Fst = fail, 0 = pass); for HT BkgdCl, Half Life / HT BkgdCl, Slope: heat treated hepatocytes control; for HT BkgdCl, Half Life / HT BkgdCl, Slope / No Cells BkgdCl, Half Life / No Cells BkgdCl, Slope: 0 vs 240 min; for Negative Controls, Heat Treated (HT), concentration at 0 min / Negative Controls, Heat Treated (HT), concentration at 240 min: heat treated hepatocytes; for Negative Controls, Heat Treated (HT), concentration at 0 min / Negative Controls, Heat Treated (HT), concentration at 240 min / Negative Controls, No cells (NC), concentration at 0 min / Negative Controls, No cells (NC), concentration at 240 min: Rep 1-3; for No Cells BkgdCl, Half Life / No Cells BkgdCl, Slope: no cells control
Outline: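 Test compound at 1 μM incubated at 37 °C with shaking in complete William's medium E, either cell-free or with metabolically inactivated hepatocytes, then quenched with ice-cold acetonitrile for quantitative analysis.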

[5] = test system: pooled human cryopreserved primary hepatocyte suspensions; assay: Hepatic metabolic stability (hepatocyte clearance) assay, substrate depletion; format: in vitro ADME; conditions: for Bkgd-Sub Clearance (µL/min/106 hepatocytes): background-subtracted; for Concentration (nM), Time 0 min / Concentration (nM), Time 15 min / Concentration (nM), Time 30 min / Concentration (nM), Time 60 min / Concentration (nM), Time 120 min / Concentration (nM), Time 240 min: hepatocyte incubation, Rep 1-3, start conc 1000 nM; for Linear Regression Results, Best-Fit Values, Slope / Linear Regression Results, Best-Fit Values, Clearance / Linear Regression Results, Best-Fit Values, Half Life: hepatocyte time course; for Linear Regression Results, Best-Fit Values, Clearance / Linear Regression Results, Best-Fit Values, Half Life: NS = slope not significant
Excerpt: (§1) William’s Medium E (Gibco A1217601), dexamethasone, and cell maintenance cocktail B (Gibco CM4000) were obtained from Thermo Fisher Scientific (Waltham, MA, USA). Hepatosure OptiThaw media (P/N K8000; Lot No. 18–1–0322) was obtained from Sekisui Xenotech (Kansas City, KS, USA). Trypan blue solution (P/N 1450021) was obtained from Bio-Rad (Hercules, CA, USA). Pooled human cryopreserved primary hepatocyte suspensions were obtained from BioIVT (Westbury, NY, USA) and produced using nontransplantable tissue. The human 50-donor pool (mixed gender; Cat X0080005; Lot MYC), selected from BioIVT’s commercially available, prepooled lots, was selected following review of vendor-generated metabolic characterization information. Pooled, mixed-sex human plasma from de-identified donors was obtained from a commercial vendor that operates a U.S. Food and Drug Administration-licensed and inspected donor center (BioIVT bioivt.com (accessed 12 May 2023). Donors comprised five males and five females and ranged from 20 to 50 years of age. Plasma collected using anticoagulant K2EDTA was sterile-filtered ([…]) and stored at <−70 °C until use.
(§2) The hepatic metabolic stability assay measures the loss of a parent compound over time in a substrate-depletion approach. Briefly, hepatocyte suspensions, after a viability assessment, were diluted in complete William’s medium E (containing dexamethasone and cell maintenance cocktail B) prior to addition to 96-well polypropylene plates containing an equal volume of media spiked with the test compound (1 μM assay concentration; assay cell density = 50,000 cells/100 μL) and maintained at 37 °C with shaking. At each time point, relevant plates were crashed with an equal volume of ice-cold acetonitrile, centrifuged, and supernatant transferred to a new plate prior to storage at <−70 °C until quantitative analysis. Controls, run in parallel, included cell-free (i.e., media only) and metabolically inactivated hepatocytes to evaluate abiotic chemical stability in the aqueous media matrix with and without cellular protein. In preliminary runs, these controls were run at T0 and T240 only. If significant instability was noted, the hepatocyte clearance assay was rerun, including cell-free samples at each time point and metabolically inactivated hepatocytes at selected time points.
(§3) To process samples for quantitative analysis, samples were thawed and mixed. An aliquot of sample was removed and diluted in acetonitrile (1 part sample plus 9 parts acetonitrile) containing the relevant ISs selected for the PFAS being analyzed (See Table S2). The target at instrument concentration of each IS was 10 pg/μL.
(§4) The curves were generated using concentration/response ratios from the target analyte and IS, with either linear or quadratic regression models. The model and weighting, if necessary, were chosen to most accurately reflect the response of each compound and was evaluated by recalculating the individual calibration points using the curve. An acceptable model reflected an accuracy of ±30% of the theoretical value.
(§5) Hepatic metabolic clearance data were plotted in semi-log format (ln concentration vs. time) with three replicates at each time point, as previously described. […] The equations described below are used to calculate the chemical half-life (T½) and intrinsic in vitro clearance (Clin vitro) with units of μL/(min × million hepatocytes). In Equation (3), 2000 is a scalar used to adjust the assay cell number up to be consistent with units of 1 million cells in the Clint equation.
(§6) Negative controls, including media only and metabolically inactivated hepatocyte controls, were included to monitor abiotic loss (i.e., background clearance) during the assay. Where significant compound loss occurred using the analysis described above, background clearance rates were calculated and used to background-adjust hepatic metabolic clearance rates. […]

[6] = test system: human plasma; assay: Chemical stability in plasma over the UC assay time course (T5hr/T1hr); conditions: for PPB_Stab_Fail: flag for stability failure in the plasma protein binding assay (1 = fail, 0 = pass); for Mean Stability: mean T5hr/T1hr ratio over all replicates and runs, plasma; for Stability (T5hr/ T1hr), replicates A, B, C: single replicate of one UC run
[7] = test system: human plasma; conditions: human, plasma
[8] = Hepatic metabolic stability (hepatocyte clearance) assay, substrate depletion; format: in vitro ADME, human; conditions: both sexes, human, s9, Clint.1.Med
Excerpt: as §1, §2, §3, §4, §5, §6

[9] = BioSeek lowest-observed effect concentration used for AED
[10] = minimum lowest-observed effect concentration, BioSeek platform
[11] = Assuming 1 mg/kg/day dose rate, BW 70 kg
[12] = human steady-state plasma concentration, assuming 1 mg/kg/day dosage

Compound: 3-(Perfluoro-2-butyl) propane-1,2-diol
- LOEC [1, 9]: 2.00 µM
- LOEC [1, 10]: 2 µM
- Fraction Unbound (fu), Run-specific Avg [2]: 0.37
- Mean fu [2]: 0.3696
- fup ([2]; human plasma): 0.3696
- Mean Fu ([2]; mean fraction unbound over all replicates and runs, UC assay, human plasma): 0.370
- Fup.Med ([2]; median fraction unbound in plasma, UC assay Level4): 0.364
- Fup.point ([2]; point estimate of fraction unbound in plasma, UC assay Level4): 0.37
- Fraction Unbound (fu), replicates A, B, C [2]: 0.349 and 0.339 and 0.421
- Css [3, 11]: 0.09 mg/L and 0.30 uM
- Clhep [3]: 28.460 L/h
- AED [3]: 6.5951 mg/kg/day
- Fub [3]: 0.672
- Css [3, 12]: 0.30 µM
- CLint [3]: 1032293 µL/min
- Hep_Stab_Fail [4]: 0
- HT BkgdCl, Half Life [4]: 285.42
- HT BkgdCl, Slope [4]: -0.002428
- Negative Controls, Heat Treated (HT), concentration at 0 min [4]: 1083.95 nM and 2011.47 nM and 1037.82 nM
- Negative Controls, Heat Treated (HT), concentration at 240 min [4]: 725.383 nM and 763.18 nM and 711.759 nM
- No Cells BkgdCl, Half Life [4]: 506.95
- No Cells BkgdCl, Slope [4]: -0.001367
- Negative Controls, No cells (NC), concentration at 0 min [4]: 1136.56 nM and 1061.97 nM
- Negative Controls, No cells (NC), concentration at 240 min [4]: 792.448 nM and 800.439 nM and 781.338 nM
- Clint.1.Med ([5]; Bayesian analysis median, 1 μM assay concentration (Table S9)): 4.6
- Bkgd-Sub Clearance (µL/min/106 hepatocytes) [5]: 5.876 µL/min/106 hepatocytes
- Unadj Clint ([5]; hepatocyte clearance, Conc 1000 nM, not background adjusted): 8.61
- Concentration (nM), Time 0 min [5]: 880.591 nM and 1037.48 nM and 1054.86 nM
- Concentration (nM), Time 15 min [5]: 858.26 nM and 1099.86 nM and 993.717 nM
- Concentration (nM), Time 30 min [5]: 742.136 nM and 974.371 nM and 915.81 nM
- Concentration (nM), Time 60 min [5]: 904.196 nM and 908.986 nM and 744.943 nM
- Concentration (nM), Time 120 min [5]: 623.052 nM and 608.094 nM and 642.654 nM
- Concentration (nM), Time 240 min [5]: 400.866 nM and 351.17 nM and 326.466 nM
- Linear Regression Results, Best-Fit Values, Slope [5]: -0.004305
- Linear Regression Results, Best-Fit Values, Clearance [5]: 8.61
- Linear Regression Results, Best-Fit Values, Half Life [5]: 160.976
- In Vitro Clint ([5]; pooled human hepatocyte suspensions, 1 μM): 5.88 μL/min/10^6 cells
- Unadj in vitro Clint ([5]; unadjusted hepatocyte intrinsic clearance): 8.61
- Stability (T5hr/ T1hr), Run-specific Avg ([6]; average of one UC run (run date in line above)): 0.962
- PPB_Stab_Fail [6]: 0
- Mean Stability [6]: 0.965
- Fstable.Med ([6]; median fraction stable in plasma, UC assay Level4): 0.232
- Stability (T5hr/ T1hr), replicates A, B, C [6]: 0.883 and 0.994 and 1.018

Compound: C=CC(=O)OCCC(F)(F)C(F)(F)C(F)(F)C(F)(F)C(F)(F)C(F)(F)C(F)(F)C(F)(F)F [8:2 Fluorotelomer acrylate]
- % remaining_PPB [7]: 0%
- PPB_Stab_Fail [7]: 1
- Hep_Stab_Fail [4]: 1

Compound: CCNc1nc(NC(C)C)nc(SC)n1 [Ametryn, reference compound]
- hepatocyte CLint at 1 μM [8]: 14.7 µL/min/1e6 cells

Compound: OCC(F)(F)C(F)(F)C(F)(F)CO [Hexafluoroamylene glycol]
- LOEC [1, 9]: 2.00 µM
- LOEC [1, 10]: 2 µM
- Fraction Unbound (fu), Run-specific Avg [2]: 0.68
- Mean fu [2]: 0.6770
- fup ([2]; human plasma): 0.6770
- fup ([2]; human plasma, listed as hexafluoroamylene glycol): 0.68
- Fraction Unbound (fu), replicates A, B, C [2]: 0.6223 and 0.7422 and 0.6663
- Css [3, 11]: 0.44 mg/L and 2.07 uM
- Clhep [3]: 0.000 L/h
- AED [3]: 0.9667 mg/kg/day
- Fub [3]: 1
- Css [3, 12]: 2.07 µM
- Css ([3]; human steady-state plasma concentration, assuming 1 mg/kg/day dosage, listed as hexafluoroamylene glycol): 2.1 to 2.7 µM
- CLint [3]: 0 µL/min
- Hep_Stab_Fail [4]: 0
- HT BkgdCl, Half Life [4]: 329.06
- HT BkgdCl, Slope [4]: -0.002106
- Negative Controls, Heat Treated (HT), concentration at 0 min [4]: 941.377 nM and 735.79 nM and 794.754 nM
- Negative Controls, Heat Treated (HT), concentration at 240 min [4]: 487.17 nM and 595.696 nM and 416.449 nM
- No Cells BkgdCl, Half Life [4]: 490.099
- No Cells BkgdCl, Slope [4]: -0.001414
- Negative Controls, No cells (NC), concentration at 0 min [4]: 830.122 nM and 683.027 nM and 707.501 nM
- Negative Controls, No cells (NC), concentration at 240 min [4]: 479.464 nM and 568.092 nM and 532.117 nM
- Bkgd-Sub Clearance (µL/min/106 hepatocytes) [5]: 0.00 µL/min/106 hepatocytes
- Concentration (nM), Time 0 min [5]: 904.289 nM and 891.557 nM and 657.581 nM
- Concentration (nM), Time 15 min [5]: 889.716 nM and 801.576 nM and 938.868 nM
- Concentration (nM), Time 30 min [5]: 774.463 nM and 733.048 nM and 756.418 nM
- Concentration (nM), Time 60 min [5]: 901.107 nM and 929.789 nM and 820.604 nM
- Concentration (nM), Time 120 min [5]: 865.693 nM and 807.871 nM and 671.853 nM
- Concentration (nM), Time 240 min [5]: 674.351 nM and 611.715 nM and 490.915 nM
- Linear Regression Results, Best-Fit Values, Slope [5]: -0.001398
- Linear Regression Results, Best-Fit Values, Clearance [5]: 2.796
- Linear Regression Results, Best-Fit Values, Half Life [5]: 495.708
- clearance rate in hepatocytes ([5]; human hepatocyte suspensions, values as rounded or worded in text): no clearance
- PPB_Stab_Fail [6]: 0
- Mean Stability [6]: 0.996
- Stability (T5hr/ T1hr), replicates A, B, C [6]: 1.079 and 0.9916 and 0.917
